The source made the active and inactive calls. The calls are words filed in the database; no cut-off is given here.
Legend:
[1] = target: T1, Mitogen-activated protein kinase 14 (Homo sapiens, UniProt Q16539); experiment: Inhibition of human recombinant untagged p38alpha expressed in Escherichia coli using ATF2 as substrate incubated for 60 mins in presence of [33P]-ATP by scintillation counting method
[2] = target: T2, TGF-beta receptor type-1 (Homo sapiens, UniProt P36897); experiment: Inhibition of human recombinant GST-tagged ALK5 expressed in Sf9 insect cells using casein as substrate incubated for 60 mins in presence of [33P]-ATP by scintillation counting method
T2 sequence (P36897 whole entry): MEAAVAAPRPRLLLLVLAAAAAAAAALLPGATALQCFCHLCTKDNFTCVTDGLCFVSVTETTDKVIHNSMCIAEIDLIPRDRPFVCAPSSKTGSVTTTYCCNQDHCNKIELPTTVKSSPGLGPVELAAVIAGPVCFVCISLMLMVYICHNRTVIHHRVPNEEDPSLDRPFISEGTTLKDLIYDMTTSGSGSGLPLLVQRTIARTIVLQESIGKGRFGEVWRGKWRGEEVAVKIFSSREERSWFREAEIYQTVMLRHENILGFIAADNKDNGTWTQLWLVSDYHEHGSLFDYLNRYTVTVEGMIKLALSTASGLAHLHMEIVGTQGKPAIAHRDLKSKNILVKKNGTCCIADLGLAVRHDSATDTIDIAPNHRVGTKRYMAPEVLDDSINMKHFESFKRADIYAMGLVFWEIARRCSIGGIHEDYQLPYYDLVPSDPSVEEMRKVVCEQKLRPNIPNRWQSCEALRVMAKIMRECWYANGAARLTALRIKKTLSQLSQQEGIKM

[3] = target: T3, TGF-beta receptor type-1 (Homo sapiens) (UniProt P36897); experiment: Potency index, ratio of IC50 for EW-7197 to IC50 for test compound for inhibition of human recombinant GST-tagged ALK5 expressed in Sf9 insect cells using casein as substrate incubated for 60 mins in presence of [33P]-ATP by scintillation counting method
T3 sequence (whole entry): T2 sequence (P36897 whole entry)

[4] = target: T3, TGF-beta receptor type-1 (Homo sapiens); experiment: Inhibition of ALK5 in human SPC-A1 cells assessed as reduction in TGFbeta1-induced Smad2 phosphorylation at 0.1 to 0.5 uM incubated for 36 hrs by Western blot analysis; assay type: cell-based
[5] = target: T1, Mitogen-activated protein kinase 14; experiment: Potency index, ratio of IC50 for LY-2157299 to IC50 for test compound for inhibition of human recombinant untagged p38alpha expressed in Escherichia coli using ATF2 as substrate incubated for 60 mins in presence of [33P]-ATP by scintillation counting method
[6] = target: T3, TGF-beta receptor type-1 (Homo sapiens); experiment: Inhibition of ALK5 in human HepG2 cells assessed as reduction in TGFbeta1-induced Smad2 phosphorylation incubated for 36 hrs by Western blot analysis; assay type: cell-based
[7] = target: T3, TGF-beta receptor type-1 (Homo sapiens); experiment: Potency index, ratio of IC50 for LY-2157299 to IC50 for test compound for inhibition of human recombinant GST-tagged ALK5 expressed in Sf9 insect cells using casein as substrate incubated for 60 mins in presence of [33P]-ATP by scintillation counting method
[8] = target: T3, TGF-beta receptor type-1 (Homo sapiens); experiment: Inhibition of ALK5 in human HUVEC cells assessed as reduction in TGFbeta1-induced cell motility at 10 uM incubated for 0 to 48 hrs by wound healing assay; assay type: cell-based
[9] = target: T1, Mitogen-activated protein kinase 14; experiment: Potency index, ratio of IC50 for EW-7197 to IC50 for test compound for inhibition of human recombinant untagged p38alpha expressed in Escherichia coli using ATF2 as substrate incubated for 60 mins in presence of [33P]-ATP by scintillation counting

T1 sequence (Q16539 whole entry): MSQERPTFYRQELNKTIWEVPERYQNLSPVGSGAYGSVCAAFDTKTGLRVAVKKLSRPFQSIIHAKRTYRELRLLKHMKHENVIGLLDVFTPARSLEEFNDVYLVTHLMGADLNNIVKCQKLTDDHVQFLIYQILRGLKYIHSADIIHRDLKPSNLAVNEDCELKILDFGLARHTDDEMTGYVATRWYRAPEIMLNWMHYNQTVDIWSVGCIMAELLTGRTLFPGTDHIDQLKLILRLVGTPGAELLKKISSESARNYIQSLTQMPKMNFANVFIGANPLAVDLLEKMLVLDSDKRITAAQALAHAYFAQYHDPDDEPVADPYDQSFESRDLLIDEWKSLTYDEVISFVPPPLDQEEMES

SMILES | IC50 [1] | IC50 [2] | further results
Cc1cccc(-c2[nH]c(CNc3ccccc3)nc2-c2ccc3nsnc3c2)n1 | 763 nM | 14 nM | –
Cc1cccc(-c2[nH]c(CNc3ccc(F)cc3)nc2-c2ccc3nsnc3c2)n1 | 831 nM | 10 nM | –
Cc1cccc(-c2[nH]c(CNc3ccc(F)cc3)nc2-c2cc3cnccc3s2)n1 | 4840 nM | 42 nM | –
Cc1cccc(-c2[nH]c(CNc3ccccc3C)nc2-c2cc3cnccc3s2)n1 | 2440 nM | 14 nM | –
Cc1cccc(-c2[nH]c(CNc3cccc(F)c3)nc2-c2cc3cnccc3s2)n1 | 1520 nM | 17 nM | –
Cc1cccc(-c2[nH]c(CNc3ccccc3C)nc2-c2ccc3nsnc3c2)n1 | 899 nM | 21 nM | –
Cc1ccc(NCc2nc(-c3ccc4nsnc4c3)c(-c3cccc(C)n3)[nH]2)cc1 | 7700 nM | 22 nM | –
Cc1cccc(-c2[nH]c(CNc3ccccc3F)nc2-c2cc3cnccc3s2)n1 | 6060 nM | 23 nM | –
Cc1cccc(-c2[nH]c(CNc3ccccc3F)nc2-c2ccc3nsnc3c2)n1 | 1170 nM | 11 nM | –
Cc1ccc(NCc2nc(-c3cc4cnccc4s3)c(-c3cccc(C)n3)[nH]2)cc1 | > 10000 nM | 43 nM | –

Now from value to molecule, other results behind:

IC50 [1] | IC50 [2] | SMILES | further results
148 nM | 8 nM | Cc1cccc(-c2[nH]c(CNc3cccc(F)c3)nc2-c2ccc3nsnc3c2)n1 | Ratio IC50 [3]: 1.8; inhibition [4]: Active; Ratio IC50 [5]: 3.3; inhibition [6]: Dose-dependent effect; Ratio IC50 [7]: 16.1; inhibition [8]: Active; Ratio IC50 [9]: 19.9
2220 nM | 19 nM | Cc1cccc(NCc2nc(-c3cc4cnccc4s3)c(-c3cccc(C)n3)[nH]2)c1 | –
4400 nM | 25 nM | Cc1cccc(-c2[nH]c(CNc3ccccc3)nc2-c2cc3cnccc3s2)n1 | –
513 nM | 13 nM | Cc1cccc(NCc2nc(-c3ccc4nsnc4c3)c(-c3cccc(C)n3)[nH]2)c1 | –

From ChEMBL document CHEMBL4433262, “Synthesis and biological evaluation of novel benzo[c][1,2,5]thiadiazol-5-yl and thieno[3,2-c]- pyridin-2-yl imidazole derivatives as ALK5 inhibitors” (Bioorg Med Chem Lett, 2019)
